Our source for the EC50 and hepatic extraction ratio values is ChEMBL document CHEMBL3352420, “Discovery of 2-pyridylureas as glucokinase activators” (J Med Chem, 2014).

Data set [1] addresses T1, Hexokinase-4 (Homo sapiens, UniProt P35557).
T1 sequence (P35557 whole entry): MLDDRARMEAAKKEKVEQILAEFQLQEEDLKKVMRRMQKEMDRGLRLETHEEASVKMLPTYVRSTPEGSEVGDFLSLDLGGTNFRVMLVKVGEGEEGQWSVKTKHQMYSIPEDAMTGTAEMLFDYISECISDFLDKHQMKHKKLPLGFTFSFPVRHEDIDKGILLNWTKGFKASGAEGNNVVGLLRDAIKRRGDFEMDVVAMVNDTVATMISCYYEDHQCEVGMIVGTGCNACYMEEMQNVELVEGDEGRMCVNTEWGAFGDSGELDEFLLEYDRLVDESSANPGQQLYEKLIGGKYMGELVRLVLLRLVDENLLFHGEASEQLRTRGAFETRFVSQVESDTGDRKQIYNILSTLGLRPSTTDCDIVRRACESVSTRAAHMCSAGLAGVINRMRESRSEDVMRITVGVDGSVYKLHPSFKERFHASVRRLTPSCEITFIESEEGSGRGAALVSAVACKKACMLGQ
The data set can be described thus: Activation of purified human glucokinase isoform 3 (13 to 466 aa) using 5 mM glucose by spectrophotometry in presence of NAD+ and glucose 6-phosphate dehydrogenase.

Data set [2] has as its target T1, Hexokinase-4. The data set can be described thus: Activation of purified human glucokinase isoform 3 (13 to 466 aa) using 5 mM glucose by spectrophotometry in presence of NAD+ and glucose 6-phosphate dehydrogenase in presence of 4% HSA.
Data set [3] can be described thus: Extraction ratio in mouse liver microsomes at 1 uM up to 20 mins by LC-MS/MS analysis. Format: ADME. Particulars: read-out: ERH. A general note: Liver microsomes are vesicles of endoplasmic reticulum, rich in cytochrome P450 enzymes; call rule not given here.
Data set [4] can be described thus: Extraction ratio in human liver microsomes at 1 uM up to 20 mins by LC-MS/MS analysis. Format: ADME. The note with it: read-out: ERH.

What is called EC50 is the concentration giving half of the maximal effect.

Regarding `CCc1ncccc1Oc1cc(Sc2ccccn2)cnc1NC=O`, the results for the EC50 at Hexokinase-4 [1] and on Hexokinase-4 [2] (read-out: EC50) were 13200 nM and 41400 nM, respectively.
In the case of `CCc1ncccc1Oc1cc(Sc2ccccn2)cnc1NC(C)=O`, the EC50 is above 50000 nM on Hexokinase-4 [1] and “Not Active” on Hexokinase-4 [2].
In the same order, the values of `CCOC(=O)Nc1ncc(Sc2ccccn2)cc1Oc1cccnc1CC` are above 50000 nM and “Not Active”.
Take `CCNC(=O)Nc1ncc(Sc2ccccn2)cc1Oc1cccnc1CC`: the concentration for a half-maximal effect (EC50) on Hexokinase-4 [1] is 203 nM; at Hexokinase-4 [2] (read-out: EC50), 547 nM.
For the molecule `CCc1ncccc1Oc1cc(Sc2ccccn2)cnc1NC(=O)NC`, the values for the EC50 at Hexokinase-4 [1] and on Hexokinase-4 [2] (read-out: EC50) were 88 nM and 231 nM, respectively. Besides, the values for the hepatic extraction ratio at 20 min, 1 µM in data set [3] and in data set [4] were 0.85 and 0.75, respectively.
As to `CCc1ncccc1Oc1cc(Sc2ccccn2)cnc1NC(N)=O`, the EC50 came out at 1730 nM on Hexokinase-4 [1] and 4480 nM at Hexokinase-4 [2] (read-out: EC50).
With `CCc1ncccc1Oc1cc(Sc2ccccn2)cnc1NC(=O)NC(C)C`, the EC50 at Hexokinase-4 [1] was above 50000 nM; on Hexokinase-4 [2] it was “Not Active”.
On to `CCc1ncccc1Oc1cc(Sc2ccccn2)cnc1NC(=O)NCCO`, for which the EC50 on Hexokinase-4 [1] came out at 2120 nM; at Hexokinase-4 [2] (read-out: EC50) it was 2840 nM.
The matching figures for `CCc1ncccc1Oc1cc(Sc2ccccn2)cnc1NC(=O)NCc1ccccn1`: 1620 nM and 3990 nM.
The matching figures for `CCc1ncccc1Oc1cc(Sc2ccccn2)cnc1NC(=O)NCc1cccnc1`: 758 nM and 1970 nM.
The matching figures for `CCc1ncccc1Oc1cc(Sc2ccccn2)cnc1NC(=O)NCc1ccncc1`: 952 nM and 1160 nM.
For `CCc1ncccc1Oc1cc(Sc2ccccn2)cnc1NC(=O)NCc1ccccc1O`, the results for the EC50 on Hexokinase-4 [1] and on Hexokinase-4 [2] (read-out: EC50) were 393 nM and 5850 nM, respectively.
In the same order, the values of `CCc1ncccc1Oc1cc(Sc2ccccn2)cnc1NC(=O)NCc1cccc(O)c1` are 276 nM and 2830 nM.
